Patent US20110184178A1, “POLYMORPHS OF 5-(3-(ETHYLSULFONYL)PHENYL)-3,8-DIMETHYL-N-(1-METHYLPIPERIDIN-4-YL)-9H-PYRIDO[2,3-B]INDOLE-7-CARBOXAMIDE AND METHODS OF USE THEREFOR” (Takeda Pharmaceutical Company Limited, priority 2008, published 2011)
Read-outs that look alike come from different tables or passages of the source.

Experiments:
Type in all cases: physicochemical
[1] = Humidity chamber study of Form A (XRPD, Karl Fischer); conditions: ambient temperature and 0% RH for one week
Text: A sample of Form A was exposed to ambient temperature and 0% RH for one week.

[2] = Solubility study of Form A in de-ionized water and 20 mM phosphate buffer at pH 3.2 (HPLC, XRPD of solids); conditions: for solubility at 1 week: ambient temperature, read-out: Solubility mg/mL (1 week); for solubility at 1 day: read-out: Solubility mg/mL (1 day)
Procedure: Solubility was determined for Form A of Compound I by suspending the material in de-ionized water and 20 mM phosphate buffer at pH 3.2 and ambient temperature. Approximately 40 mg of Form A of Compound I was charged to 2-dram amber vials equipped with magnetic stir bars, followed by the addition of DI water or phosphate buffer (2.0 mL) in one portion. The samples were allowed to equilibrate with stirring for 16 h, followed by centrifugation. An aliquot of the supernatant liquid was analyzed by HPLC, and the solids isolated by filtration and dried under vacuum at ambient temperature for analysis by XRPD. Samples were allowed to stir for an additional 6 days and concentration determined by HPLC.

[3] = DSC heat-cool experiments with isothermal holds to isolate high-melt forms
Procedure: Differential scanning calorimetry (DSC) analyses were carried out on samples weighed in an aluminum pan, covered with a pierced lid, and then crimped. Analysis conditions were 30° C. to 300-350° C. ramped at 10° C./min. Samples were subjected to heat-cool-heat experiments to determine if a unique form or interconversion could be observed. Compound I was prepared by thoroughly mixing Form A lots with stirring by spatula and tumbling the powders for several minutes in a scintillation vial. Experiments were setup as described in Tables 17 and 18 with isothermal holds for five minutes at temperatures slightly below/above the observed transitions to encourage conversion/ripening. Similarly, controlled cooling profiles (−5° C./min) were used to help promote crystal growth as opposed to quench cooling which may result in amorphous or kinetically favored forms instead of the stable form.

[4] = Slurry experiments (form by XRPD after slurrying in a solvent); conditions: Form A in dioxane slurry
Procedure: 50 to 60 mg of Form A of Compound I was weighed out into 2 dram amber vials and the material was slurried in 2 mL of a solvent. The slurry experiments were carried out at either ambient temperature or at 40° C. Samples were obtained from slurries after one day, one week, and two weeks. Tables 15 and 16 detail the results of the slurry experiments.

[5] = Physical characterization of the polymorphs and salt (XRPD, DSC, TGA, 1H-NMR, KF, moisture sorption): stability assessment; conditions: solid form
Procedure: Described herein are Form A, Form B, Form C, Form D, Form E, Form F and Form G of Compound I. Various tests were performed in order to physically characterize the polymorphs of Compound I, including X-ray powder diffraction (XRPD), differential scanning calorimetry (DSC), thermogravimetric analysis (TGA), solution proton nuclear magnetic resonance (^1H-NMR), and moisture sorption and desorption analysis (M S/Des). Detailed experimental conditions for each of the analytical techniques are described in the Examples section. […] A summary of these experiments and the results are presented below and in Table 12.

[6] = Moisture-sorption analysis (gravimetric adsorption/desorption, 25° C.)
Procedure: Further, the material gained enough water to form the dihydrate in approximately 45 minutes at 30% RH during adsorption and lost enough water to form the anhydrate at 15% RH during desorption in less than 60 minutes. […] The sample was further allowed to equilibrate at ambient laboratory conditions overnight and reanalyzed by XRPD. […] The moisture sorption experiment of Form C of Compound I provides a curve similar to the Form A curve (FIG. 11). […] Further, the material gained enough water to form the dihydrate in less than 60 minutes at 30% RH during adsorption and lost enough water to form the anhydrate at 15% RH during desorption in approximately 80 minutes. […] Moisture-sorption experiments were carried out on all samples by first drying the sample at 0% RH and 25° C. until an equilibrium weight was reached or for a maximum of four hours. The sample was then subjected to an isothermal (25° C.) adsorption scan from 10 to 90% RH in steps of 10%. Samples were then allowed to equilibrate to an asymptotic weight at each point for a maximum of four hours. Following adsorption, a desorption scan from 85 to 0% RH (at 25° C.) was run in steps of −10% again allowing a maximum of four hours for equilibration to an asymptotic weight. Samples were dried for one hour at 80° C. and the resulting solids analyzed by XRPD.

[7] = solids isolated from DI water suspension
[8] = solids isolated from phosphate buffer suspension, pH 3.2
[9] = 30-280° C. @ 10° C./min, hold 280° C. for 5 min, 280-30° C. @ -5° C./min
[10] = 30-290° C. @ 10° C./min, hold 290° C. for 5 min, 290-30° C. @ -5° C./min

With `CCS(=O)(=O)c1cccc(-c2cc(C(=O)NC3CCN(C)CC3)c(C)c3[nH]c4ncc(C)cc4c23)c1` [Compound I Form A, 5-(3-(ethylsulfonyl)phenyl)-3,8-dimethyl-N-(1-methylpiperidin-4-yl)-9H-pyrido[2,3-b]indole-7-carboxamide] the “Karl Fischer (KF) analysis results before and after the one week equilibration” value [1] was “comparable”, the “XRPD after one week in humidity chamber” value [1] was “consistent with Form A” and the “pH, 1 week” value ([2]; DI water suspension, pH (initial) 6.9) was 7.2. The “pH, 1 week” value ([2]; Phosphate buffer suspension, pH (initial) 3.2) was 3.4, the solubility at 1 week ([2]; aqueous buffer, thermodynamic from solid, Phosphate buffer (20 mM), pH (initial) 3.2, pH 3.4 at 1 week) was < 0.1 mg/mL and the solubility at 1 day ([2]; de-ionized water, pH 6.9, thermodynamic from solid, DI water, pH (initial) 6.9, ambient temperature) was < 0.1 mg/mL. For the same compound, the solubility at 1 week ([2]; de-ionized water, thermodynamic from solid, DI water, pH (initial) 6.9, pH 7.2 at 1 week) was < 0.1 mg/mL, the solubility at 1 day ([2]; pH 3.2, aqueous buffer, thermodynamic from solid, Phosphate buffer (20 mM), pH (initial) 3.2, ambient temperature) was < 0.1 mg/mL and the “XRPD (1 week)” value [2, 7] was “Form A”. The “XRPD (1 day)” value [2, 7] was “Form A”, the “XRPD (1 week)” value [2, 8] was “Form A” and the “XRPD (1 day)” value [2, 8] was “Form A”. For the same compound, the “1H NMR (degradation)” value [3, 9] was “No degradation”, the XRPD [3, 9] was “Form F” and the “1H NMR (degradation)” value [3, 10] was “No degradation”. The XRPD [3, 10] was “Form G”, the “XRPD pattern of dioxane slurry” value [4] was “mixture of Form A and Form D” and the “stability (based on the available characterization data)” value [5] was “stable at ambient conditions”. For the same compound, the “XRPD analysis of the solid following the desorption scan” value [6] was “consistent with Form C”, the “time to lose enough water to form the anhydrate” value ([6]; at 15% RH during desorption) was “less than 60 minutes” and the “time to gain enough water to form the dihydrate” value ([6]; at 30% RH during adsorption) was “approximately 45 minutes”. For the same compound, the “hydration state in the moisture sorption experiment” value ([6]; during both adsorption and desorption, 25° C.) was “stable dihydrate above 20% RH” and the “XRPD after equilibration at ambient laboratory conditions overnight” value ([6]; sample after desorption scan) was “re-converted to Form A”.
